Measurements reported in PMC12592502, “Unraveling the mechanisms behind the enhanced efficacy of β-lactam-based sideromycins” (Communications Biology, 2025).
In brackets after ≈: the same amount, converted by molar mass. Like-named read-outs stand apart in the source and are kept apart here.

How the values were obtained:
E. coli ATCC 25922 = experiment: MIC, broth microdilution (CLSI); assay type: cell-based, Escherichia coli; conditions: for MIC ratio unconjugated β-lactam/conjugate / MIC ratio 0/1 / MIC ratio 1/0: ID-MHBCA; for MIC ratio 0/1: 0 and 1 µg/mL supplemental iron (Table S2); for MIC ratio 1/0: 1 versus 0 µg/mL supplemental iron (peer review file table)
Experimental: (§1) All bacterial strains (see description and sources Table S1) were stored at −80 °C, and grown on tryptone soya agar (TSA) at 35 °C. The iron-deprived (ID)-MHBCA (cation-adjusted Muller-Hinton Broth, Becton Dickinson, Mississauga, ON, Canada) medium was prepared as reported by refs. [21],[50]. Briefly, MHBCA was treated with 10% Chelex® 50-100 mesh (Sigma) and stirred for 6 h at room temperature. The resin was removed by filtration. Divalent Ca^2+ (CaCl2), Mg^2+ (MgCl2), and Zn^2+(ZnSO4), were then added in the iron-depleted medium at 22, 12, and 1 μg/ml respectively. Finally, the pH was adjusted to 7.3, and the medium was sterilized with a 0.2-μm filter. Regular MHBCA (i.e., not treated with Chelex®) was used to compare the inhibitory activity of conjugates in iron-sufficient conditions.
(§2) Minimal inhibitory concentrations (MICs) were performed using a broth microdilution technique according to the Clinical and Laboratory Standards Institute (CLSI) guidelines. MICs were determined in MHBCA and in ID-MHBCA. To check the impact of β-lactamases, MICs in the presence of a β-lactamase inhibitor were also determined. The inhibitor was homogenized at 2X the final concentration and added to the bacterial inoculum just before distributing cells into the wells containing the drug dilutions. The final concentration of each inhibitor was 4 μg/mL for clavulanic acid (tested against K. pneumoniae) and 200 μg/mL for 3-aminophenylboronic acid (tested against P. aeruginosa and A. baumannii).

E. coli ΔcirA = experiment: MIC, Keio mutant; assay type: cell-based, Escherichia coli
Experimental: as §1, §2

E. coli ΔfhuA = experiment: MIC, Keio mutant; assay type: cell-based, Escherichia coli
Experimental: as §1, §2

E. coli Δfiu = experiment: MIC, Keio mutant; assay type: cell-based, Escherichia coli
Experimental: as §1, §2

P. aeruginosa 1020 = experiment: MIC, parent of efflux pump mutants; assay type: cell-based, Pseudomonas aeruginosa; conditions: P. aeruginosa 1020, read-out: MIC
Experimental: as §2

[1] = test system: P. aeruginosa 1624 ΔmexCD-oprJ, ΔmexEF-oprN; experiment: MIC, efflux pump mutant; assay type: cell-based, Pseudomonas aeruginosa
Experimental: as §2

[2] = test system: P. aeruginosa 1625 ΔmexAB-oprM, ΔmexEF-oprN; experiment: MIC, efflux pump mutant; assay type: cell-based, Pseudomonas aeruginosa
Experimental: as §2

PBP1a/1b = experiment: Membrane PBP binding assay, competition with Bocillin FL; parameters: species or system E. coli MC4100; conditions: for IC50: E. coli MC4100 membranes, 12.5 μM Bocillin FL
Experimental: (§3) Membrane extracts containing PBPs were obtained as described above. Briefly, all species were grown in 1 L of TSB until the OD600 reached 0.9. The washed pellet was incubated with lysozyme (400 μg/mL), DNase (10 μg/mL) RNase(10 μg/mL) and anti-protease cocktail (200 mg/20 mL). Lysis was done with a French press (20,000 psi) and membrane protein were pelleted by ultracentrifugation steps (100,000 × g). The pellet was suspended in a minimal volume (300–500 μL) of KP 0.05 M buffer at pH 7. The protein concentration in the membrane preparations was determined with the Micro BCA TM Protein Assay Kit (Thermo Fisher Scientific, Rockford, IL) using bovine serum albumin as a standard.
(§4) The PBP binding assay was done as described previously[36],[56],[57]. For each antibiotic concentration tested, a quantity of 25 to 40 μg of membrane preparation was used as the source of PBPs, depending on the species. For the purified PaPBP3, 150 ng was used in the assay. First, increasing concentrations of the test antibiotic was added to the membrane or purified PaPBP3 preparations and incubated for 10 min at 30 °C. The reporter molecule Bocillin FL was then added at 12.5 μM for the membrane PBPs preparations and at 500 nM for the pure PaPBP3 samples for an additional 20 min at 30 °C. All reactions were stopped with the addition of the Laemmli-loading buffer (Bio-Rad) containing fresh β-mercaptoethanol (Sigma). All reactions were then heated at 100°C for 3 min before migration on SDS-polyacrylamide discontinuous gel system (7.5% stacking and 10% separating). Control samples without Bocillin FL were also included to highlight autofluorescent proteins that are not PBPs.
(§5) To be able to visualize labeled PBPs after electrophoresis, gels were rinsed in water and fixed in a solution of 50% methanol and 7% acetic acid for 30 min. The fluorescent images of gels were obtained with the Typhoon FLA 9500 instrument (GE-Healthcare Bio-Sciences Inc., Baie-d’Urfé, QC, CA) using a 473 nm excitation wavelength. To obtain quantifiable data, the software Quantity One 1D analysis was used (version 4.6.6; Bio-Rad Laboratories, Richmond, CA). The volume (intensity × constant area) of each PBP was measured. […] All IC50 data were obtained from at least two independent PBP binding assays using two different sets of compound concentrations using a linear regression. The PBP profiles were confirmed, and the PBP numbering were determined using published data and individual molecular weights. […] For example, amdinocillin (Sigma) was used for PBP2 identification. […] The IC50 for PBP 2 of P. aeruginosa was measured by including the SDS-PAGE comigrating autofluorescent protein in the background, as done previously.

PBP2 = molecular target: T1, PBP2 (Escherichia coli, UniProt P0AD65); experiment: as above; parameters: species or system E. coli MC4100
T1 construct: using bacterial membranes as the source of PBPs; endogenous in cells; host or cells: E. coli MC4100 membrane preparation
Experimental: as §3, §4, §5

PBP3 = molecular target: T2, PBP3 (Escherichia coli, UniProt P0AD68); experiment: as above; parameters: species or system E. coli MC4100
T2 construct: using bacterial membranes as the source of PBPs; endogenous in cells; host or cells: E. coli MC4100 membrane preparation
Experimental: as §3, §4, §5

PBP4 = molecular target: T3, PBP4 (Escherichia coli, UniProt P24228); experiment: as above; parameters: species or system E. coli MC4100
T3 construct: using bacterial membranes as the source of PBPs; endogenous in cells; host or cells: E. coli MC4100 membrane preparation
Experimental: as §3, §4, §5

[3] = Escherichia coli, ATCC25922, ID-MHBCA + 1 µg/mL supplemental iron
[4] = Escherichia coli, ATCC25922, MHBCA (+)
[5] = Escherichia coli, ATCC25922, iron-deprived ID-MHBCA (−), 0 µg/mL supplemental iron
[6] = iron-deprived ID-MHBCA (−), 0 µg/mL supplemental iron
[7] = E. coli MC4100 membranes; read-out: IC50 PBP2
[8] = E. coli MC4100 membranes; read-out: IC50 PBP3
[9] = E. coli MC4100 membranes; read-out: IC50 PBP4

## O=C(CCC(=O)N(CCCCNC(=O)c1cccc(O)c1O)CCCNC(=O)c1cccc(O)c1O)NCCCCCN(O)C(=O)CCCC(=O)NC(C(=O)NC1C(=O)N2C(C(=O)O)=C(Cl)CSC12)c1ccccc1 (stereo not shown) [MCEF, mixed ligand bis-catechol-mono-hydroxamate-cefaclor]
E. coli ATCC 25922; [3]
  MIC: 25 µM
E. coli ATCC 25922; [4]
  MIC: 6.3 to 25 µM (≈ 6.81 to 27 µg/mL)
E. coli ATCC 25922; [5]
  MIC: > 200 µM
E. coli ATCC 25922
  MIC ratio unconjugated β-lactam/conjugate: <0.016
E. coli ATCC 25922; [6]
  MIC: >200 µM
E. coli ΔcirA; Escherichia coli, ID-MHBCA
  MIC: > 200 µM
E. coli ΔcirA; Escherichia coli, MHBCA
  MIC: > 200 µM
E. coli ΔcirA; MHBCA
  MIC: >200 µM
E. coli ΔfhuA; Escherichia coli, ID-MHBCA
  MIC: > 200 µM
E. coli ΔfhuA; Escherichia coli, MHBCA
  MIC: 13 µM (≈ 14.1 µg/mL)
E. coli Δfiu; Escherichia coli, ID-MHBCA
  MIC: > 200 µM
E. coli Δfiu; Escherichia coli, MHBCA
  MIC: 100 µM (≈ 108 µg/mL)
P. aeruginosa 1020; Pseudomonas aeruginosa
  MIC: > 100 µM
[1]; Pseudomonas aeruginosa
  MIC: > 100 µM
[2]; Pseudomonas aeruginosa
  MIC: > 100 µM
PBP1a/1b; E. coli MC4100
  IC50 value ratio βL/SID-βL, PBP1a/1b: 227
PBP1a/1b
  IC50: 0.15 ± 0.01 µM
PBP2; read-out: IC50 PBP2; E. coli MC4100 membranes
  IC50: 29.3 ± 2.3 µM
PBP3; E. coli MC4100
  IC50 value ratio βL/SID-βL, PBP3: 49
PBP3; read-out: IC50 PBP3; E. coli MC4100 membranes
  IC50: 0.32 ± 0.01 µM
PBP4; read-out: IC50 PBP4; E. coli MC4100 membranes
  IC50: 8.6 ± 1.3 µM

## N[C@@H](C(=O)N[C@@H]1C(=O)N2C(C(=O)O)=C(Cl)CC[C@H]12)c1ccccc1 [LOR, loracarbef, reference compound]
E. coli ATCC 25922; ID-MHBCA + 0.1 µg/mL supplemental iron
  MIC: 3.1 µM
E. coli ATCC 25922; ID-MHBCA + 1 µg/mL supplemental iron
  MIC: 3.1 µM
E. coli ATCC 25922
  MIC ratio 0/1: 2
  MIC ratio 1/0: 2
E. coli ATCC 25922; MHBCA (+)
  MIC: 3.1 µM (≈ 1.08 µg/mL)
E. coli ATCC 25922; [6]
  MIC: 1.6 µM (≈ 0.56 µg/mL)
E. coli ΔcirA; ID-MHBCA
  MIC: 13 µM (≈ 4.55 µg/mL)
E. coli ΔcirA; MHBCA
  MIC: 13 µM (≈ 4.55 µg/mL)
E. coli ΔfhuA; ID-MHBCA
  MIC: 6.3 µM (≈ 2.2 µg/mL)
E. coli ΔfhuA; MHBCA
  MIC: 6.3 µM (≈ 2.2 µg/mL)
E. coli Δfiu; ID-MHBCA
  MIC: 6.3 µM (≈ 2.2 µg/mL)
E. coli Δfiu; MHBCA
  MIC: 6.3 µM (≈ 2.2 µg/mL)
P. aeruginosa 1020
  MIC: > 200 µM
[1]; P. aeruginosa 1624
  MIC: > 200 µM
[2]; P. aeruginosa 1625
  MIC: > 200 µM
PBP1a/1b
  IC50: 42.5 ± 11.8 µM
PBP2; [7]
  IC50: > 50 µM
PBP3; [8]
  IC50: 14.9 ± 4.3 µM
PBP4; [9]
  IC50: 31.6 ± 9 µM

## O=C(CN(CCCCNC(=O)c1cccc(O)c1O)C(=O)c1cccc(O)c1O)NC(C(=O)NC1C(=O)N2C(C(=O)O)=C(Cl)CCC12)c1ccccc1 (stereo not shown) [BLOR, bis-catechol (azotochelin)-loracarbef]
E. coli ATCC 25922; Escherichia coli, ATCC25922, ID-MHBCA + 0.1 µg/mL supplemental iron
  MIC: 0.05 µM
E. coli ATCC 25922; [3]
  MIC: 0.1 µM
E. coli ATCC 25922; [4]
  MIC: 0.024 µM (≈ 0.018 µg/mL)
E. coli ATCC 25922; [5]
  MIC: 0.012 µM (≈ 0.009 µg/mL)
E. coli ATCC 25922
  MIC ratio unconjugated β-lactam/conjugate: 128
  MIC ratio 0/1: 8
  MIC ratio 1/0: 8
E. coli ATCC 25922; MHBCA
  MIC ratio unconjugated β-lactam/conjugate (AMP/BAMP, LOR/BLOR, CEF/MCEF): 128
E. coli ΔcirA; Escherichia coli, ID-MHBCA
  MIC: 0.2 µM (≈ 0.15 µg/mL)
E. coli ΔcirA; Escherichia coli, MHBCA
  MIC: 13 µM (≈ 9.75 µg/mL)
E. coli ΔfhuA; Escherichia coli, ID-MHBCA
  MIC: 0.024 µM (≈ 0.018 µg/mL)
E. coli ΔfhuA; Escherichia coli, MHBCA
  MIC: 0.1 to 0.4 µM (≈ 0.075 to 0.3 µg/mL)
E. coli ΔfhuA; MHBCA
  MIC: 0.2 µM (≈ 0.15 µg/mL)
E. coli Δfiu; Escherichia coli, ID-MHBCA
  MIC: 0.024 µM (≈ 0.018 µg/mL)
E. coli Δfiu; Escherichia coli, MHBCA
  MIC: 0.1 to 0.4 µM (≈ 0.075 to 0.3 µg/mL)
E. coli Δfiu; MHBCA
  MIC: 0.1 µM (≈ 0.075 µg/mL)
P. aeruginosa 1020; Pseudomonas aeruginosa
  MIC: 6.3 µM (≈ 4.73 µg/mL)
[1]; Pseudomonas aeruginosa
  MIC: 6.3 µM (≈ 4.73 µg/mL)
[2]; Pseudomonas aeruginosa
  MIC: 6.3 µM (≈ 4.73 µg/mL)
PBP1a/1b
  IC50: 0.55 ± 0.02 µM
PBP2; [7]
  IC50: > 50 µM
PBP3; E. coli MC4100
  IC50 value ratio βL/SID-βL, PBP3: 199
PBP3; [8]
  IC50: 0.075 ± 0.011 µM
PBP4; [9]
  IC50: 8.3 ± 0.5 µM
